Experimental data reported in ChEMBL document CHEMBL1201862, “PubChem BioAssay data set” (2004).
The source made the active and inactive calls.

What was measured:
[1] = biological target: T1, Polyadenylate-binding protein 1 (Homo sapiens, UniProt P11940); assay: MLLE domain peptide-binding blockers, IC50 – biochemical, fluorescence polarization, FITC-PAM2 peptide, dose response (AID 602259); assay type: functional; conditions: read-out: IC50_Mean
[2] = biological target: T1, Polyadenylate-binding protein 1; assay: MLLE binding blockers, Cy5 peptide tracer – biochemical, fluorescence polarization, Cy5-PAM2 peptide, secondary, miRNA deadenylation inhibitor project, dose response (AID 602260); assay type: functional; conditions: read-out: IC50_Mean
[3] = biological target: T2, Long-chain-fatty-acid--AMP ligase FadD28 (Mycobacterium tuberculosis, UniProt P9WQ59); assay: Fluorescence polarization aasay to screen for inhibitors that compete for the binding of FadD28 to a bisubstrate Measured in Biochemical System Using Plate Reader - 2147-01_Inhibitor_Dose_CherryPick_Activity.; assay type: functional, Mycobacterium tuberculosis H37Rv
T2 sequence (P9WQ59 whole entry): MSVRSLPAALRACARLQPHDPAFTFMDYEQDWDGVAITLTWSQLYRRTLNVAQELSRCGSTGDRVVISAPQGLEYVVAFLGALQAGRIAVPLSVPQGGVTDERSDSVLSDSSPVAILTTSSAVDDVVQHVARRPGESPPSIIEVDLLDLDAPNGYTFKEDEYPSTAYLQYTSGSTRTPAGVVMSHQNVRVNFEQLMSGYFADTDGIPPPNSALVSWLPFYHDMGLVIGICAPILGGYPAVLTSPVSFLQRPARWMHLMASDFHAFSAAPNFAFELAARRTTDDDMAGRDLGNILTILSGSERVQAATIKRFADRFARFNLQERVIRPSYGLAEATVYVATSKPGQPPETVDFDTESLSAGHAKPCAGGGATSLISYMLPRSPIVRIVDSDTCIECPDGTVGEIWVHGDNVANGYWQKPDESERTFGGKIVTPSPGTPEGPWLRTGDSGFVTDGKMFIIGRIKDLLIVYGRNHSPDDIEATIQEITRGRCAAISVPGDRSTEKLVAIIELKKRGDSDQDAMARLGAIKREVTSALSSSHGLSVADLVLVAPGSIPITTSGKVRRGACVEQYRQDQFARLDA

[4] = biological target: T3, Sentrin-specific protease 8 (Homo sapiens, UniProt Q96LD8); assay type: functional;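 note: luminescence read-out of SENP8 inhibition, dose-response confirmation following an ultra-high-throughput screen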
T3 sequence (Q96LD8 whole entry): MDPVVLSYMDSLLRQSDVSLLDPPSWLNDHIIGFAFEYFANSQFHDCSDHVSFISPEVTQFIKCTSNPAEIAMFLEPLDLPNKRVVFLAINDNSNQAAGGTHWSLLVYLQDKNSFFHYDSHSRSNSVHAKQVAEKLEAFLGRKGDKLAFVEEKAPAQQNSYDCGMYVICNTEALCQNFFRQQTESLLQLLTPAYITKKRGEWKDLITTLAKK

[5] = biological target: T4, Sentrin-specific protease 7 (Homo sapiens, UniProt Q9BQF6); assay type: functional;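 note: Luminescence-based dose-response confirmation of ultra-high-throughput screening hits, measuring inhibition of SENP7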
T4 sequence (Q9BQF6 whole entry): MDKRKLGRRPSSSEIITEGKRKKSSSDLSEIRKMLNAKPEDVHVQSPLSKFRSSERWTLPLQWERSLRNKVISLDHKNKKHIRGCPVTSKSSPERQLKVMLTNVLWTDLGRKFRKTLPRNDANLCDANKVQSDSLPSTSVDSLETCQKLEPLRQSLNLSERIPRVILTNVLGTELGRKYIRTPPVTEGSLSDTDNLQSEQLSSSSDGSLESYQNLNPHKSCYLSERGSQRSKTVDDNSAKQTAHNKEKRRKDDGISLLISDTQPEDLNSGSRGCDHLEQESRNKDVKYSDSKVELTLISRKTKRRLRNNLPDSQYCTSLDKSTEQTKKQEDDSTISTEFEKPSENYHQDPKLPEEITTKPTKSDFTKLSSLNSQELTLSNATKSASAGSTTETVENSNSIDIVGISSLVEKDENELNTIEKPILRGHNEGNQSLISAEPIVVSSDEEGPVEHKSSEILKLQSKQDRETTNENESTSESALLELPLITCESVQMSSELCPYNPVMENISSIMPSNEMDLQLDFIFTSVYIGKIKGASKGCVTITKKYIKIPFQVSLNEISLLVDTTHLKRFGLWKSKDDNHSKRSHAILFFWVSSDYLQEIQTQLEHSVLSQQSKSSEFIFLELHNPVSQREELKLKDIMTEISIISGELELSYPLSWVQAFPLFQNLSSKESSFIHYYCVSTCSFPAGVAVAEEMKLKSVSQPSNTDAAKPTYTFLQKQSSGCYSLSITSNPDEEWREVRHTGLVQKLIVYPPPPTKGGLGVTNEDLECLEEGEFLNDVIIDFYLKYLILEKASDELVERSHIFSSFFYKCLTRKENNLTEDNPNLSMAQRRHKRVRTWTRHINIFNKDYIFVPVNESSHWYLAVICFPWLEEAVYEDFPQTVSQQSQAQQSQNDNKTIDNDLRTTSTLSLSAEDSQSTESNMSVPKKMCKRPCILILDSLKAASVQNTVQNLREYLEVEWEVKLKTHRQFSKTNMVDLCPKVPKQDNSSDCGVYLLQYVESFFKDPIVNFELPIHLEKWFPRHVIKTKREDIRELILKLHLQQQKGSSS

[6] = biological target: T5, Caspase-3 (Homo sapiens, UniProt P42574); assay type: functional;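 note: Dose-response selectivity test against caspase-3 for candidate inhibitors of sentrin-specific proteases (SENPs)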
T5 sequence (P42574 whole entry): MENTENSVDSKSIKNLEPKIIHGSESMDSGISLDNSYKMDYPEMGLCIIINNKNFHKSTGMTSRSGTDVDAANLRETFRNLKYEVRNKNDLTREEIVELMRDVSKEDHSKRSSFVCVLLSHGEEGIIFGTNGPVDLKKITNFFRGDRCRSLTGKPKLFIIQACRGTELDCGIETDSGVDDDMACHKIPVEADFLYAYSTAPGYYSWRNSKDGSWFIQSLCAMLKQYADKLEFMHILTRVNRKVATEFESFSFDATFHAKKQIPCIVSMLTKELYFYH

[7] = biological target: T6, Sentrin-specific protease 6 (Homo sapiens, UniProt Q9GZR1); assay type: functional;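 note: Luminescence-based dose-response confirmatory assay of SENP6 inhibition, following up an ultra-high-throughput screen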
T6 sequence (Q9GZR1 whole entry): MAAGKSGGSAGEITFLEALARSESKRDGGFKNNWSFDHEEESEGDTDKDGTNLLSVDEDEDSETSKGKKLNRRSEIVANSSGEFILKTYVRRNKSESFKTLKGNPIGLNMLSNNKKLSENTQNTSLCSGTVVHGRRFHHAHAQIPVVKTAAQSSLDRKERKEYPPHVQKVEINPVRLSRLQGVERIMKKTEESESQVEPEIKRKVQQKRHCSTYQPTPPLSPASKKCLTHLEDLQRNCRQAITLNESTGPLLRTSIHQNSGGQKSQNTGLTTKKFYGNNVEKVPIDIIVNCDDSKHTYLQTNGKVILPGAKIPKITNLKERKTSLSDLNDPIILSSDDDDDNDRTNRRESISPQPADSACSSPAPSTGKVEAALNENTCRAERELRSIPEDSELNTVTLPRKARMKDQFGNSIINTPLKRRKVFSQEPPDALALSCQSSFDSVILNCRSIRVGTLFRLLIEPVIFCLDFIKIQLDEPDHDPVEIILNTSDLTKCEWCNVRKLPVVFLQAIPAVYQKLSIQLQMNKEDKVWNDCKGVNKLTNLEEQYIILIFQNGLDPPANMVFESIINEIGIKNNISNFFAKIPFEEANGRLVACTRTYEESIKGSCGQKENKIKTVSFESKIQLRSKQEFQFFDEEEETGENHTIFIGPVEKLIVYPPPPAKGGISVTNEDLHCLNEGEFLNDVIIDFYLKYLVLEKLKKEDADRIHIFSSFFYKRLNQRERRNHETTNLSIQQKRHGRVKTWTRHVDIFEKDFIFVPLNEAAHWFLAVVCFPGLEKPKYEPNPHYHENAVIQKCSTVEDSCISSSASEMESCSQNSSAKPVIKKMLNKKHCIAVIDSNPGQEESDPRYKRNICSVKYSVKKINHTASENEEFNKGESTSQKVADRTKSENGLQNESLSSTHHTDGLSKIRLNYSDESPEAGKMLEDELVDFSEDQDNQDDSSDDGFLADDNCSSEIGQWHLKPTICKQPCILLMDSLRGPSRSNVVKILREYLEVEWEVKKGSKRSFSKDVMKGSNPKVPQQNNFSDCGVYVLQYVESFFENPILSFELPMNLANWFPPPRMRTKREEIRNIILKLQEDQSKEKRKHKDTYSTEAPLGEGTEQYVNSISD

[8] = A549 cell cytotoxicity, dose response, cytotoxicity control, plate reader, cherry-pick, antagonist series (AID 743412); assay type: functional, cell-based
[9] = blockers of bursicon-stimulated LGR2 cAMP reporter – cell-based, HEK293, CRE-luciferase reporter, cherry pick, set 2, dose response (AID 743343); assay type: functional;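 note: transfected cells were stimulated with diluted bursicon conditioned medium after compound addition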
[10] = blockade of melanocortin 4 receptor signaling – cell-based, plate reader, cherry pick, counter-screen for LGR2 antagonist project, dose response (AID 743444); assay type: functional;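 note: transfected HEK 293 cells stimulated with alpha-MSH peptide; potency of inhibitors of the alpha-MSH evoked signal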
[11] = viability loss in HEK293 cells – cell-based, plate reader, cherry-picked samples, cytotoxicity control, dose response (AID 743446); assay type: functional
[12] = biological target: Glucose-6-phosphate 1-dehydrogenase (Homo sapiens, UniProt P11413); assay: inhibition of Homo sapiens G6PD, dose series – biochemical, fluorescence, selectivity assay for P. falciparum G6PD inhibitor project, dose response (AID 504792); assay type: functional
[13] = luciferase reporter signal suppression in cells – H4 neuroglioma cells, luminescence, dose response (AID 1990); assay type: functional, cell-based
[14] = alpha-synuclein stem-loop luciferase translation blockers – H4 neuroglioma cells, luminescence, confirmation (AID 1988); assay type: functional, cell-based
[15] = cells; assay type: functional, cell-based
[16] = Luminescence Cell-Based Dose Response HTS to Identify Inhibitors of 5'UTR Stem-Loop Driven Prion Protein mRNA Translation in H4 Neuroglioblastoma Cells. [Related pubchem assays: 1827 (Project Summary), 1813 (Primary HTS)]; assay type: functional
[17] = cells; assay type: functional, cell-based; remark: listed apart in the source

Glucose-6-phosphate 1-dehydrogenase, sequence (P11413 whole entry): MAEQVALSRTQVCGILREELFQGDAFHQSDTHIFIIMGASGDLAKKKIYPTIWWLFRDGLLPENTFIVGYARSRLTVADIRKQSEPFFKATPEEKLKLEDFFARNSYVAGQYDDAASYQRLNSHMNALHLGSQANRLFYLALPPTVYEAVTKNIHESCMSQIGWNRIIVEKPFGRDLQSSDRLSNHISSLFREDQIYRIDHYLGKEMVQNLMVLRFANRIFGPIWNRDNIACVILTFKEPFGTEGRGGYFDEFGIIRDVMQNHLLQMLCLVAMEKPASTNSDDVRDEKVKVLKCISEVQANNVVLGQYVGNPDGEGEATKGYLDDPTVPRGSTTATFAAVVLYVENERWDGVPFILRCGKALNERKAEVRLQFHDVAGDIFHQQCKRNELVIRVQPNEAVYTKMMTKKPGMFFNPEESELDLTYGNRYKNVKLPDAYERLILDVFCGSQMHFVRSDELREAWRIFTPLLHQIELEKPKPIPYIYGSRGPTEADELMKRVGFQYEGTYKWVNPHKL
T1 sequence (P11940 whole entry, the tested form may be a part): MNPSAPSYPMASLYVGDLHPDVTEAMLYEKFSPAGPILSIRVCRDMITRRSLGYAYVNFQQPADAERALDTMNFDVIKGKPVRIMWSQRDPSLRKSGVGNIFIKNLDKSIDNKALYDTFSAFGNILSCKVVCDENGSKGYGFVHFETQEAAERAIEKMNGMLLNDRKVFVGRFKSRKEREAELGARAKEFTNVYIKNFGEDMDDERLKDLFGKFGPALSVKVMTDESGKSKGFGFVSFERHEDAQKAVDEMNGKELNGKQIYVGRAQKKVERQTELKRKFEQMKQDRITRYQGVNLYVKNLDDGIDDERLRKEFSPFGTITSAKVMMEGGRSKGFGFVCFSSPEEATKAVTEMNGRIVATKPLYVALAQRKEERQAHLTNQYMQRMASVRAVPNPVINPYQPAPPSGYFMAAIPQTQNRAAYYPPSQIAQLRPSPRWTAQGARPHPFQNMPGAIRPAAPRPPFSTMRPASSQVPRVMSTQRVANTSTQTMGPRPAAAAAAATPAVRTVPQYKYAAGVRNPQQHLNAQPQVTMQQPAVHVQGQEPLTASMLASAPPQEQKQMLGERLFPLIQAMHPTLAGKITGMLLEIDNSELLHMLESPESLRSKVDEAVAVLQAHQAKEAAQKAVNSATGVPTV

SMILES: Cc1ccc(N=C(S)C2=C(O)c3sccc3N(C)S2(=O)=O)cc1
- IC50 [1]: > 66 µM (inactive)
- IC50 [2]: > 66 µM (inactive)
- AC50 [3]: > 100 µM (inactive)

SMILES: Cc1ccccc1C(=O)Oc1ccc2ccc(O)cc2c1
- IC50 [4]: 12.1 µM (active)
- IC50 [5]: 4.59 µM (active)
- IC50 [6]: 35.4 µM (active)
- IC50 [7]: 10.4 µM (active)

SMILES: Cc1cccc(-c2ccc([C@H]3[C@@H](CO)N4CCCCN(C(=O)c5cccnc5)C[C@@H]34)cc2)c1
- AC50 [8]: 38.4 µM (active)
- AC50 [9]: 20.8 µM (active)
- AC50 [10]: 23.5 µM (active)
- AC50 [11]: > 52 µM (inactive)

SMILES: Cc1ccc(NC(=O)c2ccc3c(c2)OCO3)cc1Cl
- IC50 [4]: > 100 µM (inactive)
- IC50 [5]: 4.44 µM (active)
- IC50 [6]: 14 µM (active)
- IC50 [7]: 5.35 µM (active)

SMILES: CCOC(=O)c1ccc(-n2c(N)c(C(=O)NCC3CCCO3)sc2=S)cc1 (stereo unspecified)
- IC50 [12]: > 80 µM (inactive)

SMILES: O=C(N/N=C(\Cc1ncc[nH]1)c1ccccc1)c1ccccc1
- EC50 [13]: 12.7 µM (active)
- EC50 [14]: > 120 µM (not active)
- EC50 [15]: > 350 µM (not active)
- EC50 [16]: > 120 µM (not active)
- EC50 [17]: > 350 µM (not active)

SMILES: C/C(=N\NC(=O)Cc1ccc(Br)cc1)c1cccnc1
- EC50 [15]: > 350 µM (not active)
- EC50 [17]: 36.3 µM (active)

SMILES: O=C(CCC(=O)OCC(=O)c1ccc([N+](=O)[O-])cc1)Nc1ccccc1Cl
- IC50 [12]: > 80 µM (inactive)

SMILES: Cc1cccc(N2CCN(c3ccc(N4C(=O)CCCC4=O)cc3[N+](=O)[O-])CC2C)c1 (stereo unspecified)
- EC50 [15]: > 350 µM (not active)
- EC50 [17]: > 350 µM (not active)
